These results are taken from patent publication US7064128B2, “Preferentially substituted calcium channel blockers” (NeuroMed Technologies, Inc., priority 1998, dated 2006).

Assay type in all cases: cell-based
Assay [1] deals with T1, N-type calcium channels (α1B+α2δ+β1b cDNA subunits) (Rattus norvegicus, UniProt Q02294).
T1 construct: expressed in transfected cells
The assay can be described thus: Whole cell patch clamp, tonic and frequency dependent block, N-type channels in HEK 293 (Example 5). The conditions noted are these: for % Block (100 nM) 0.03 Hz: 0.03 Hz (tonic block); for % Block (100 nM) 0.2 Hz: 0.2 Hz (frequency dependent block). As for the experimental part:
(§1) N-type calcium channel blocking activity was assayed in human embryonic kidney cells, HEK 293, stably transfected with the rat brain N-type calcium channel subunits (α1B+α2δ+β1b cDNA subunits). Alternatively, N-type calcium channels (α1B+α2δ+β1b cDNA subunits), L-type channels (α1C+α2δ+β1b cDNA subunits) and P/Q-type channels (α1A+α2δ+β1b cDNA subunits) were transiently expressed in HEK 293 cells. Briefly, cells were cultured in Dulbecco's modified eagle medium (DMEM) supplemented with 10% fetal bovine serum, 200 U/ml penicillin and 0.2 mg/ml streptomycin at 37° C. with 5% CO2. At 85% confluency cells were split with 0.25% trypsin/1 mM EDTA and plated at 10% confluency on glass coverslips. At 12 hours the medium was replaced and the cells transiently transfected using a standard calcium phosphate protocol and the appropriate calcium channel cDNAs. Fresh DMEM was supplied and the cells transferred to 28° C./5% CO2. Cells were incubated for 1 to 2 days to whole cell recording.
(§2) Whole cell patch clamp experiments were performed using an Axopatch 200B amplifier (Axon Instruments, Burlingame, Calif.) linked to a personal computer equipped with pCLAMP software. The external and internal recording solutions contained, respectively, 5 mM BaCl2, 1 mM MgCl2, 10 mM HEPES, 40 mM TEACl, 10 mM glucose, 87.5 mM CsCl (pH 7.2) and 108 mM CsMS, 4 mM MgCl2, 9 mM EGTA, 9 mM HEPES (pH 7.2). Currents were typically elicited from a holding potential of −80 mV to +10 mV using Clampex software (Axon Instruments). Typically, currents were first elicited with low frequency stimulation (0.03 Hz) and allowed to stabilize prior to application of the compounds. The compounds were then applied during the low frequency pulse trains for two to three minutes to assess tonic block, and subsequently the pulse frequency was increased to 0.2 Hz to assess frequency dependent block. Data were analyzed using Clampfit (Axon Instruments) and SigmaPlot 4.0 (Jandel Scientific).

Assay [2] relates to P/Q-type channels (α1A+α2δ+β1b cDNA subunits). Nature of the assay: Whole cell patch clamp, tonic and frequency dependent block, P/Q-type channels in HEK 293 (Example 5). The settings on record: in general. As for the experimental part:
as §1, §2
(§3) Tables 2 and 3 show the results of similar experiments conducted with P/Q-type and L-type channels expressed in HEK 293 cells.

In assay [3] the target is P/Q-type channels (α1A+α2δ+β1b cDNA subunits) (UniProt P54282). The assay is described as above. As for the experimental part: as §1, §2, §3
The target in assay [4] is T2, L-type channels (α1C+α2δ+β1b cDNA subunits) (UniProt P22002).
T2 construct: other: α1C (L-type), 100 nM, 0.03 Hz; other: α1C (L-type), 100 nM, 0.2 Hz; other: α1C (L-type), 0.03 Hz; other: α1C (L-type), 0.2 Hz
Nature of the assay: Whole cell patch clamp, tonic and frequency dependent block, L-type channels in HEK 293 (Example 5). As for the experimental part:
as §1, §2, §3

In assay [5] the test system is L-type channels (α1C+α2δ+β1b cDNA subunits). The description is as above. The settings on record: in general. Here is the method: as §1, §2, §3
The target of assay [6] is T3, rat α1B+α2b+β1b channels (N-type channels) (Rattus norvegicus, UniProt Q02294).
T3 construct: expressed in transfected cells
Nature of the assay: Whole cell patch recordings, N-type calcium channel block (Examples 1 and 4). The settings on record: block of N-type calcium channels, HEK cells, 5 mM barium as charge carrier. As for the experimental part:
Antagonist activity was measured using whole cell patch recordings on human embryonic kidney cells either stably or transiently expressing rat α1B+α2b+β1b channels (N-type channels) with 5 mM barium as a charge carrier.
For transient expression, host cells, such as human embryonic kidney cells, HEK 293 (ATCC# CRL 1573) were grown in standard DMEM medium supplemented with 2 mM glutamine and 10% fetal bovine serum. HEK 293 cells were transfected by a standard calcium-phosphate-DNA coprecipitation method using the rat α1B+β1b+α2δ N-type calcium channel subunits in a vertebrate expression vector (for example, see Current Protocols in Molecular Biologyl ).
After an incubation period of from 24 to 72 hrs the culture medium was removed and replaced with external recording solution (see below). Whole cell patch clamp experiments were performed using an Axopatch 200B amplifier (Axon Instruments, Burlingame, Calif.) linked to an IBM compatible personal computer equipped with pCLAMP software. Borosilicate glass patch pipettes (Sutter Instrument Co., Novato, Calif.) were polished (Microforge, Narishige, Japan) to a resistance of about 4 MΩ when filled with cesium methanesulfonate internal solution (composition in MM: 109 CsCH3SO4, 4 MgCl2, 9 EGTA, 9 HEPES, pH 7.2). Cells were bathed in 5 mM Ba^++ (in mM: 5 BaCl2, 1 MgCl2, 10 HEPES, 40 tetraethylammonium chloride, 10 glucose, 87.5 CsCl pH 7.2). Current data shown were elicited by a train of 100 ms test pulses at 0.066 Hz from −100 mV and/or −80 mV to various potentials (min. −20 mV, max. +30 mV). Drugs were perfused directly into the vicinity of the cells using a microperfusion system.
Normalized dose-response curves were fit (Sigmaplot 4.0, SPSS Inc., Chicago, Ill.) by the Hill equation to determine IC50 values. Steady-state inactivation curves were plotted as the normalized test pulse amplitude following 5 s inactivating prepulses at +10 mV increments. Inactivation curves were fit (Sigmaplot 4.0) with the Boltzman equation, Ipeak (normalized)=1/(1+exp((V−Vh)z/25.6)), where V and Vh are the conditioning and half inactivation potentials, respectively, and z is the slope factor.

[7] abbreviates: Table 4 summary, 0.2 Hz, N-type, unit not given in Table 4 (μM in Table 1), read-out: N (IC50 values).
Setting [8] is: α1B (N-type), 0.03 Hz, read-out: Estimated IC50 (μM) 0.03 Hz.
Where [9] appears, read: α1B (N-type), 0.2 Hz, read-out: Estimated IC50 (μM) 0.2 Hz.
The mark [10] stands for this setting: Table 4 summary, 0.2 Hz, P/Q-type, unit not given in Table 4 (μM in Table 2), read-out: P/Q (IC50 values).
Where [11] appears, read: α1A (P/Q-type), 0.03 Hz, read-out: Estimated IC50 (μM) 0.03 Hz.
Setting [12] is: α1A (P/Q-type), 0.2 Hz, read-out: Estimated IC50 (μM) 0.2 Hz.
Setting [13] is: Table 4 summary, 0.2 Hz, L-type, unit not given in Table 4 (μM in Table 3), read-out: L (IC50 values).
Setting [14] is: α1C (L-type), 0.03 Hz, read-out: Estimated IC50 (μM) 0.03 Hz.
Setting [15] is: α1C (L-type), 0.2 Hz, read-out: Estimated IC50 (μM) 0.2 Hz.

Read-outs that look alike come from different tables or passages of the source.

T3 sequence (Q02294 whole entry): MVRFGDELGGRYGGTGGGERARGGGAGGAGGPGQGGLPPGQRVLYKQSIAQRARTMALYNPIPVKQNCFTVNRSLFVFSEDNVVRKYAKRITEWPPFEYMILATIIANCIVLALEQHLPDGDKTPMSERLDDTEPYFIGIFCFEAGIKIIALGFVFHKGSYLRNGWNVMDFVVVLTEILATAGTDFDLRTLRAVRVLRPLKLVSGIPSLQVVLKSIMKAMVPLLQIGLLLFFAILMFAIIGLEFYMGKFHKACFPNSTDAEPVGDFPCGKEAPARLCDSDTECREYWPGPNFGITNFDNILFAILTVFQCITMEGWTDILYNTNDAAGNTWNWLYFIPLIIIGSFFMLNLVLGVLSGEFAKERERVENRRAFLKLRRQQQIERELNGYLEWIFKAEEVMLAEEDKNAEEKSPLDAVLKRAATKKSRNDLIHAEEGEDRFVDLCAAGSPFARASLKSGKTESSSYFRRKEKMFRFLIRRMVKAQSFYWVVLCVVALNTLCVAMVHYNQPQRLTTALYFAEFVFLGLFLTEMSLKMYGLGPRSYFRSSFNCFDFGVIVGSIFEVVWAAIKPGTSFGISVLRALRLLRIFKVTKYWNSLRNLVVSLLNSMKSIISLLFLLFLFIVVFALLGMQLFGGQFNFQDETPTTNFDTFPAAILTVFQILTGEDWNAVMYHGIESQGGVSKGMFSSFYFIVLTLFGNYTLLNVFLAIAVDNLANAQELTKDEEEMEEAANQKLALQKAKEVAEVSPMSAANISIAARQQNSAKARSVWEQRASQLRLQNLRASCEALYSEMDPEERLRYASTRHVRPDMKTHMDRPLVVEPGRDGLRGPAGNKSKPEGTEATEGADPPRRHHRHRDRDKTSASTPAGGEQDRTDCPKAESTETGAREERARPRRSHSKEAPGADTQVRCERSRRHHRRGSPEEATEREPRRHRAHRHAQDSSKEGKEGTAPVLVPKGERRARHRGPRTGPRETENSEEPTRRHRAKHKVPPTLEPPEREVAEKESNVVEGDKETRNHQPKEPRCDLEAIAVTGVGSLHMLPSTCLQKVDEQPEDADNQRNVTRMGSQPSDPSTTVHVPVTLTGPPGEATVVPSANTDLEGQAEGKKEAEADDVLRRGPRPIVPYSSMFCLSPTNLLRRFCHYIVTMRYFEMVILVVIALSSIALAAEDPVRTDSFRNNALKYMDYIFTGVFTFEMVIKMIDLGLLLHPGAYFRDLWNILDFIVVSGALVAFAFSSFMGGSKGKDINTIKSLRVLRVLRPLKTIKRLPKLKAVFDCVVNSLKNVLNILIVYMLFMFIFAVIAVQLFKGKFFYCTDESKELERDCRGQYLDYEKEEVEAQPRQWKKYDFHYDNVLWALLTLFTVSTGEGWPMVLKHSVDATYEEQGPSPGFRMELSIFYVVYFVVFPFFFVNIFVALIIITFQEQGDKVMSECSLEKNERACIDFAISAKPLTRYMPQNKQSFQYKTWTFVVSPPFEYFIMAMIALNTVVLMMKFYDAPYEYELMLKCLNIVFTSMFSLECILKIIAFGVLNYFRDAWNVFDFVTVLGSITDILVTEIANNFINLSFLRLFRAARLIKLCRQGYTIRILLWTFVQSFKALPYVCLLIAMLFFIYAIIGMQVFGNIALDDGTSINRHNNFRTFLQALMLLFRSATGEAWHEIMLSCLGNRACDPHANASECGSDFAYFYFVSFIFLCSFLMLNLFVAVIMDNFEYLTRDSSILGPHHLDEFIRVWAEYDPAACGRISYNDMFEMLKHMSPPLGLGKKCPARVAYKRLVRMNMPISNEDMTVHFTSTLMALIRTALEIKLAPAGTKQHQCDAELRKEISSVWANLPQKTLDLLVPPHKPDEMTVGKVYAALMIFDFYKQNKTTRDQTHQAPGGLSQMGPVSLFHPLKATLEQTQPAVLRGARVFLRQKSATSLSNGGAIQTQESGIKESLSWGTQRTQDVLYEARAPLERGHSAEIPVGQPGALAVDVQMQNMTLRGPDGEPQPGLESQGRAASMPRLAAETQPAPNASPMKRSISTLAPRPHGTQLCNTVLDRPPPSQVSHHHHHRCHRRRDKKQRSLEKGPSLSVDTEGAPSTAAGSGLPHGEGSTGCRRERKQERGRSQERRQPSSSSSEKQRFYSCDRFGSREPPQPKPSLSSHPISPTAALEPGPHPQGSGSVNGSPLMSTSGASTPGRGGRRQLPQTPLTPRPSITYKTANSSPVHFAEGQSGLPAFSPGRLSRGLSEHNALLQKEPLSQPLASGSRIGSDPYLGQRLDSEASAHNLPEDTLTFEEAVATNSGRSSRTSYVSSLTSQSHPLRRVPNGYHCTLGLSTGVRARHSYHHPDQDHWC
T3 sequence (P54290 25-944 partner limits assumed): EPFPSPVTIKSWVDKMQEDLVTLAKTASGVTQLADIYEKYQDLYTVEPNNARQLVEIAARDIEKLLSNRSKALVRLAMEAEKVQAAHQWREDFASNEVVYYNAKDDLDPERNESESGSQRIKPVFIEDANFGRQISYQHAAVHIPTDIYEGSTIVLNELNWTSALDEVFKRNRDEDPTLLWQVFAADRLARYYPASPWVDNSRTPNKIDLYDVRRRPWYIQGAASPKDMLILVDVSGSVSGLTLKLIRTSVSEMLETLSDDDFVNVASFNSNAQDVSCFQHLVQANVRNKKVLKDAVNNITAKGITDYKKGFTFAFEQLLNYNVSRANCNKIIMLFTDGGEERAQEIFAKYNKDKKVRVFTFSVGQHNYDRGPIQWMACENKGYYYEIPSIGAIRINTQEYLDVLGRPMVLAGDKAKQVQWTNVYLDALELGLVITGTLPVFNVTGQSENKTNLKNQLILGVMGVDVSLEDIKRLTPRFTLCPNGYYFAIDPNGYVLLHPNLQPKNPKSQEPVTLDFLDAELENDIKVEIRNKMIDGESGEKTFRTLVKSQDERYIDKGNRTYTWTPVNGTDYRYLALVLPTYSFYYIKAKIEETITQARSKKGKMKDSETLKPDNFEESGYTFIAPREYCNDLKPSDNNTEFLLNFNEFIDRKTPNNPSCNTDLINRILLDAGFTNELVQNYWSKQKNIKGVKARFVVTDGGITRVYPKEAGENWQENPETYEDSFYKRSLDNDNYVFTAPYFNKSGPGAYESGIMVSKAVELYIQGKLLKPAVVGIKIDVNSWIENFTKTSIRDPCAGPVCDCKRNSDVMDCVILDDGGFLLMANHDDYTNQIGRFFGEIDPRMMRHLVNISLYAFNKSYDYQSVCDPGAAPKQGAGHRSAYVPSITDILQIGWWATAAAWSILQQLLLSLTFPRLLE
T3 sequence (P54290 945-1091 partner limits assumed): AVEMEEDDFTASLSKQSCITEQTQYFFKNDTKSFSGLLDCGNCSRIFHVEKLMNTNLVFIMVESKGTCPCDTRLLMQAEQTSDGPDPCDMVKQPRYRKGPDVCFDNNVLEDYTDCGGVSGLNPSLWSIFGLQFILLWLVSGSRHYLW
T3 sequence (P54283 whole entry partner): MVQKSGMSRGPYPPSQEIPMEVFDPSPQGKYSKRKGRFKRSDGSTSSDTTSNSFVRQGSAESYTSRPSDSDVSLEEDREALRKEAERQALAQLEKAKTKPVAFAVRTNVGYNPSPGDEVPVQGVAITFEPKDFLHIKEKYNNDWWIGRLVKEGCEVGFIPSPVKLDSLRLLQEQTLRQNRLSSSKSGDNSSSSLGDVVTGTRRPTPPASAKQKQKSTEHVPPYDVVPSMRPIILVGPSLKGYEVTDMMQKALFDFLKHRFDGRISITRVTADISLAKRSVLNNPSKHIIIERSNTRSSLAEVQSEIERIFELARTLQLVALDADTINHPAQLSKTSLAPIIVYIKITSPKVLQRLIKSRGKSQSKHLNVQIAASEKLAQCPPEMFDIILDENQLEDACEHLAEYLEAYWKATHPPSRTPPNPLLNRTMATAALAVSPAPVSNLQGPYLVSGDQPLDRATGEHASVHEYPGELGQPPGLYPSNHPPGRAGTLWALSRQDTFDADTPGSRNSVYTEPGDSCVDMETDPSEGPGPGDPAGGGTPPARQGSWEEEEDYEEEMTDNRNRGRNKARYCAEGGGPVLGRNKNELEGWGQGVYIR
T1 sequence (Q02294 whole entry): as the sequence (Q02294 whole entry) above
T1 sequence (P54290 25-944 partner limits assumed): as the sequence (P54290 25-944 partner limits assumed) above
T1 sequence (P54290 945-1091 partner limits assumed): as the sequence (P54290 945-1091 partner limits assumed) above
T1 sequence (P54283 whole entry partner): as the sequence (P54283 whole entry partner) above

Regarding `O=C(CC(c1ccccc1)c1ccccc1)N1CCN(C(c2ccccc2)c2ccccc2)CC1` [39-1-B4], the “N-type channel inhibition at higher frequencies (in words)” value (“N-type channel inhibition” below) in assay [1] (0.2 Hz) is given as “most potent inhibitors at higher frequencies”. Moreover, the IC50 in assay [1] (setting [7]) was 0.04 µM; in assay [1] (setting [8]), 0.2 µM; in assay [1] (setting [9]), 0.04 µM; in assay [3] (setting [10]), 0.12 µM; in assay [3] (setting [11]), 0.65 µM; in assay [3] (setting [12]) it was 0.12 µM. Further, the IC50 in assay [4] (setting [13]) was 0.3 µM; in assay [4] (setting [14]) it was 0.5 µM; in assay [4] (setting [15]), 0.3 µM. Moreover, the “% Block (100 nM) 0.03 Hz” value is 34% in assay [1] (α1B (N-type)); 31% in assay [3] (α1A (P/Q-type), 0.03 Hz); 19% in assay [4] (α1C (L-type), 0.03 Hz). The “% Block (100 nM) 0.2 Hz” value in assay [1] (α1B (N-type)) was determined as 72%; in assay [3] (α1A (P/Q-type), 0.2 Hz) it was 52%; in assay [4] (α1C (L-type), 0.2 Hz), 29%. Moreover, in assay [2], the “IC50 values on P/Q-type channels compared with N-type (in words)” value was “higher than those exhibited with respect to N-type channels”. In addition, the “IC50 values on L-type channels compared with N-type (in words)” value in assay [5] is reported as “higher than those exhibited with respect to N-type channels”.

Consider `COc1cc(CN2CCN(CCCCCC(c3ccc(F)cc3)c3ccc(F)cc3)CC2)cc(OC)c1OC` [39-45-3], for which the “N-type channel inhibition” value in assay [1] (0.2 Hz) is recorded as “most potent inhibitors at higher frequencies”. For the same compound, the IC50 is 0.03 µM in assay [1] (setting [7]); 0.1 µM in assay [1] (setting [8]); 0.03 µM in assay [1] (setting [9]); 0.09 µM in assay [3] (setting [10]); 0.41 µM in assay [3] (setting [11]); 0.09 µM in assay [3] (setting [12]). The results for the IC50 in assay [4] (setting [13]), in assay [4] (setting [14]) and in assay [4] (setting [15]) were 0.37 µM, 0.74 µM and 0.37 µM, respectively. In addition, the “% Block (100 nM) 0.03 Hz” value in assay [1] (α1B (N-type)) worked out at 50%; in assay [3] (α1A (P/Q-type), 0.03 Hz), 27%; in assay [4] (α1C (L-type), 0.03 Hz) it was 15%. Besides, the “% Block (100 nM) 0.2 Hz” value in assay [1] (α1B (N-type)) came to 79%; in assay [3] (α1A (P/Q-type), 0.2 Hz), 58%; in assay [4] (α1C (L-type), 0.2 Hz) it was 26%. Further, the “IC50 values on P/Q-type channels compared with N-type (in words)” value in assay [2] is “higher than those exhibited with respect to N-type channels”. Further, in assay [5], the “IC50 values on L-type channels compared with N-type (in words)” value is given as “higher than those exhibited with respect to N-type channels”.

Regarding `O=C(CCCCC(c1ccccc1)c1ccccc1)N1CCC(NCC2CCCCC2)CC1` [JM-G-10], in assay [1] (0.2 Hz), the “N-type channel inhibition” value is given as “most potent inhibitors at higher frequencies”. Further, the IC50 in assay [1] (setting [7]) is 0.06 µM; in assay [1] (setting [8]), 0.17 µM; in assay [1] (setting [9]) it was 0.06 µM; in assay [3] (setting [10]), 0.07 µM; in assay [3] (setting [11]), 0.3 µM; in assay [3] (setting [12]), 0.07 µM. Moreover, the IC50 was 0.3 µM in assay [4] (setting [13]), 1.17 µM in assay [4] (setting [14]) and 0.3 µM in assay [4] (setting [15]). For the same compound, the “% Block (100 nM) 0.03 Hz” value was found to be 38% in assay [1] (α1B (N-type)); 28% in assay [3] (α1A (P/Q-type), 0.03 Hz); 7% in assay [4] (α1C (L-type), 0.03 Hz). The “% Block (100 nM) 0.2 Hz” value was determined as 63% in assay [1] (α1B (N-type)); 62% in assay [3] (α1A (P/Q-type), 0.2 Hz); 15% in assay [4] (α1C (L-type), 0.2 Hz). The “IC50 values on P/Q-type channels compared with N-type (in words)” value in assay [2] was “higher than those exhibited with respect to N-type channels”. Also, the “IC50 values on L-type channels compared with N-type (in words)” value in assay [5] is reported as “higher than those exhibited with respect to N-type channels”.

`O=C(CCCCC(c1ccccc1)c1ccccc1)N1CCN(C/C=C/c2ccccc2)CC1` [MC-34D]: the “N-type channel inhibition” value in assay [1] (0.2 Hz) is “most potent inhibitors at higher frequencies”. Besides, the IC50 in assay [1] (setting [7]) was 0.05 µM; in assay [1] (setting [8]), 0.12 µM; in assay [1] (setting [9]), 0.05 µM; in assay [3] (setting [10]), 0.08 µM; in assay [3] (setting [11]) it was 0.35 µM; in assay [3] (setting [12]), 0.08 µM. Moreover, the IC50 in assay [4] (setting [13]) was 0.39 µM; in assay [4] (setting [14]) it was 0.63 µM; in assay [4] (setting [15]), 0.39 µM. Besides, the “% Block (100 nM) 0.03 Hz” value in assay [1] (α1B (N-type)) was 47%; in assay [3] (α1A (P/Q-type), 0.03 Hz), 31%; in assay [4] (α1C (L-type), 0.03 Hz) it was 14%. Moreover, the “% Block (100 nM) 0.2 Hz” value is 73% in assay [1] (α1B (N-type)); 56% in assay [3] (α1A (P/Q-type), 0.2 Hz); 24% in assay [4] (α1C (L-type), 0.2 Hz). Moreover, the “IC50 values on P/Q-type channels compared with N-type (in words)” value in assay [2] is recorded as “higher than those exhibited with respect to N-type channels”. Moreover, the “IC50 values on L-type channels compared with N-type (in words)” value in assay [5] was “higher than those exhibited with respect to N-type channels”.

With `c1ccc(C(CCN2CCC(NCC3CCCCC3)CC2)c2ccccc2)cc1` [Φ, Φ; CH(CH2)2; CHNH; 1; Cy], the IC50 in assay [6] is 2000 to 3000 nM.

With `c1ccc(CNC2CCN(CCC(c3ccccc3)c3ccccc3)CC2)cc1` [Φ, Φ; CH(CH2)2; CHNH; 1; Φ], the IC50 in assay [6] is 2000 nM.

In the case of `O=C(CCCCC(c1ccccc1)c1ccccc1)N1CCC(NCC2CCCCC2)CC1` [Φ, Φ; CH(CH2)4CO; CHNH; 1; Cy], in assay [6], the IC50 came out at 750 nM.

For `c1ccc(C(CN2CCC(NCC3CCCCC3)CC2)c2ccccc2)cc1` [Φ, Φ; CHCH2; CHNH; 1; Cy], the IC50 in assay [6] was in the range of 3000 to 4000 nM.

`c1ccc(CNC2CCN(CC(c3ccccc3)c3ccccc3)CC2)cc1` [Φ, Φ; CHCH2; CHNH; 1; Φ]: the IC50 in assay [6] is ~3000 nM.

As to `C(CCN1CCN(CC2CCCCC2)CC1)=C(c1ccccc1)c1ccccc1` [Φ, Φ; C═CH(CH2)2; N; 1; Cy], in assay [6], the IC50 stood at 5200 nM.
